Laboratory results: patent US20260200890A1, “ADAR1 INHIBITORS AND METHODS OF USING THE SAME” (AVAMMUNE THERAPEUTICS INC., priority 2022, published 2026)

Columns and labels:
[1] = molecular target: T1, ADAR1 (Homo sapiens, UniProt P55265); assay: ADAR1 Inhibition Assay (IFN fold-induction, Quanti-Luc luminescence, p110 KO A549 dual cells); format: cell-based; settings: IFN fold-induction vs DMSO, 24 and 48 h
T1 construct: endogenous in cells; host or cells: p110 KO A549 dual cells
T1 sequence (P55265 1-1226): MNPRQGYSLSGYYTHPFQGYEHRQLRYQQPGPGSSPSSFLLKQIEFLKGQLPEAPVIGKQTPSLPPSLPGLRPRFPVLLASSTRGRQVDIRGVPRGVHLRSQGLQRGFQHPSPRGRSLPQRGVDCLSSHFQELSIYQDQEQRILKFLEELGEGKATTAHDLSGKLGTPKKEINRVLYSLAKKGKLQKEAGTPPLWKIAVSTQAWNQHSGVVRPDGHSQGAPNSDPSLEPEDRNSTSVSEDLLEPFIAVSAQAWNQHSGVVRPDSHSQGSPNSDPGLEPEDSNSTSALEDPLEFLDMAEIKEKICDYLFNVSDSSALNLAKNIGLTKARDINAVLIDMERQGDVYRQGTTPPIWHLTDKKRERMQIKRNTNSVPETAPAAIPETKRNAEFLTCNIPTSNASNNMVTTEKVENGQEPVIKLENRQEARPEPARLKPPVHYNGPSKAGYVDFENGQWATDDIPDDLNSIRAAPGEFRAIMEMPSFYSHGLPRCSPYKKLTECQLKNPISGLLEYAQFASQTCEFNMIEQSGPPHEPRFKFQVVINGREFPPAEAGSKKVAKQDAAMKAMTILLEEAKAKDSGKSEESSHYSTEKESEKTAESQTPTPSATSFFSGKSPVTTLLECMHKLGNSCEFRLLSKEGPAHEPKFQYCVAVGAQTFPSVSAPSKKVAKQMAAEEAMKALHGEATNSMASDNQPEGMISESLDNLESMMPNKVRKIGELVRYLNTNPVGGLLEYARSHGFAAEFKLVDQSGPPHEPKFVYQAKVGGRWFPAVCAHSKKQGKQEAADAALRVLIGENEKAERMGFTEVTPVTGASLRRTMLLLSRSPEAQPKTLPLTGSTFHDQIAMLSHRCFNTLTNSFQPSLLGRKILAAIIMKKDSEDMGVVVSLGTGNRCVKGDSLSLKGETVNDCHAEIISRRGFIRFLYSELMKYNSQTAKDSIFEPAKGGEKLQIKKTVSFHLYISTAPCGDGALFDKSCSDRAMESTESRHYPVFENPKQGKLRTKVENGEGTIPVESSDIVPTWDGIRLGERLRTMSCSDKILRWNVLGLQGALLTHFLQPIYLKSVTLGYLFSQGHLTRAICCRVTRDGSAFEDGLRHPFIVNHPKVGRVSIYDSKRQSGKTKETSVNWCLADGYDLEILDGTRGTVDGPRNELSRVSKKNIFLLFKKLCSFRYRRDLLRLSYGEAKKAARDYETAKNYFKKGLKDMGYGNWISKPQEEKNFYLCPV
How it was run: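 EC50 derived from IFN fold-induction, calculated as sample RLU over average DMSO RLU. Luminescence measured by Quanti-Luc on samples taken after 24 and 48 h of compound exposure (1% DMSO final, 37 °C, 5% CO2). Cells were p110 KO A549 dual, seeded at 20,000 per well in supplemented DMEM.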

[2] = molecular target: T2, Zα domain of ADAR1 p150 (Homo sapiens, UniProt P55265); assay: SPR binding assay; settings: 6× his tag Zα domain immobilized on CM5 chip, analyte 0-25 μM
T2 construct: 10 μg/ml of Zα domain of ADAR1 was immobilized on CM5 chip using anti-HIS antibody; made in house
T2 sequence (P55265 133-199 limits assumed): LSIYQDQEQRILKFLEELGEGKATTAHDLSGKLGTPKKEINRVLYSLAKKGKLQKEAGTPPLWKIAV
Procedure: 6× his tag Za domain of ADAR1 p150 was purified using bacterial purification system. Protein was isolated from supernatant of cell lysate using Ni-NTA resin. For binding assay using SPR, 10 μg/ml of Zα domain of ADAR1 was immobilized on CM5 chip using anti-HIS antibody. Binding was quantified using the following condition below: • Analyte: 25, 12.5, 6.25, 3.125, 1.56, 0.78, 0 μM • Contact time—60 seconds, • Dissociation time—320 seconds • Flow rate—30 μL/minute Running buffer-PBSP+5% DMSO • After curve fitting, Kd values for synthesized compounds was quantified using the instrument software.

SMILES | EC50 [1] [µM] | Kd [2] [µM]
CCOC(=O)c1cc(-c2ccccc2)sc1NC(=O)COC(=O)c1cccc(NC(C)=O)c1 [Compound 107] | > 100 | ≤ 1
CCOC(=O)c1cc(-c2ccccc2)sc1NC(=O)COC(=O)c1cccc(NS(C)(=O)=O)c1 [Compound 121] | > 100 | ≤ 1
CS(=O)(=O)Nc1cccc(C(=O)OCC(=O)Nc2sc(-c3ccccc3)cc2C#N)c1 [Compound 127] | > 100 | ≤ 1
CCOC(=O)c1cc(-c2ccccc2)sc1NC(=O)COC(=O)c1cccc(N(C)S(C)(=O)=O)c1 [Compound 130] | > 100 | ≤ 1
CCOC(=O)c1cc(-c2ccccc2)sc1NC(=O)COC(=O)c1cccc(NS(=O)(=O)C2CCCCC2)c1 [Compound 132] | > 100 | ≤ 1
CCOC(=O)c1cc(-c2ccccc2)sc1NC(=O)COC(=O)c1ccc(F)c(NS(C)(=O)=O)c1 [Compound 137] | > 100 | > 25
CCOC(=O)c1nc(-c2ccccc2)sc1NC(=O)COC(=O)c1cccc(NS(C)(=O)=O)c1 [Compound 144] | > 100 | ≤ 1
CCOC(=O)c1cc(-c2ccccc2)sc1NC(=O)COc1cccc(NS(C)(=O)=O)c1 [Compound 147] | > 100 | ≤ 1
CCOC(=O)c1cc(-c2ccccc2)sc1NC(=O)COC(=O)C1CCCC(NS(C)(=O)=O)C1 (centres unmarked) [Compound 150] | > 100 | > 25
CCOC(=O)c1cc(-c2ccccc2)sc1NC(=O)COC(=O)c1cccc(NS(=O)(=O)C2CC2)c1 [Compound 161] | ≤ 25 | > 25
CCOC(=O)c1cc(-c2ccccc2)sc1NC(=O)COC(=O)c1ccc2c(c1)OCCO2 [Compound 163] | > 100 | ≤ 1
CCOC(=O)c1cc(-c2ccccc2)ccc1NC(=O)COC(=O)c1cccc(NS(C)(=O)=O)c1 [Compound 171] | > 100 | > 25
CCOC(=O)c1cc(-c2ccccc2)sc1NC(=O)COC(=O)C1CN(S(C)(=O)=O)CCO1 (centres unmarked) [Compound 172] | > 100 | ≤ 1
CCOC(=O)c1cc(-c2ccccc2)sc1NC(=O)CN(C)Cc1cccc(NS(C)(=O)=O)c1 [Compound 180] | > 100 | ≤ 1
CS(=O)(=O)Nc1cccc(C(=O)OCC(=O)N2CCN(c3ccccc3)C2=O)c1 [Compound 220] | > 100 | ≤ 1
CS(=O)(=O)Nc1cccc(C(=O)OCc2nc(=O)c3cc(-c4ccccc4)sc3[nH]2)c1 [Compound 241] | > 100 | ≤ 1
CCOC(=O)c1cc(-c2ccccc2)sc1NC(=O)c1ccc(-c2cccc(NS(C)(=O)=O)c2)nc1 [Compound 253] | > 100 | ≤ 1
CS(=O)(=O)Nc1cccc(C(=O)OCC(=O)Nc2nc3ccccc3o2)c1 [Compound 270] | > 100 | ≤ 1
CCOC(=O)c1cc(-c2ccccc2)sc1NC(=O)Cn1cnc(-c2cccc(NS(C)(=O)=O)c2)n1 [Compound 274] | > 100 | ≤ 1
CCOC(=O)c1cc(-c2ccccc2)sc1C(=O)CNC(=O)c1cccc(NS(C)(=O)=O)c1 [Compound 292] | > 100 | ≤ 1
CCOC(=O)c1cc(-c2ccccc2)sc1-c1cccc(NC(=O)c2cccc(NS(C)(=O)=O)c2)c1 [Compound 293] | > 100 | > 25
CCOC(=O)c1cc(-c2ccccc2)sc1C1=CCN(C(=O)c2cccc(NS(C)(=O)=O)c2)CC1 [Compound 294] | > 100 | ≤ 1
CCOC(=O)c1cc(-c2ccccc2)sc1NC(=O)CNC(=O)Cc1cccc(NS(C)(=O)=O)c1 [Compound 310] | ≤ 25 | ≤ 1

SMILES | EC50 [1] [µM] | Kd [2] [µM]
CCOC(=O)c1cc(-c2ccccc2)sc1NC(=O)CCS(=O)(=O)c1cccc(NS(C)(=O)=O)c1 [Compound 321] | > 100 | ≤ 1
CCOC(=O)c1cc(-c2ccccc2)sc1NC(=O)COC(=O)c1cccc(P(=O)(O)O)c1 [Compound 325] | > 100 | ≤ 1
CCOC(=O)c1cc(-c2ccccc2)sc1NC(=O)CNC(=O)Cc1cccc(C(F)(F)F)c1 [Compound 326] | > 100 | ≤ 1
CCOC(=O)c1cc(-c2ccccc2)sc1NC(=O)CNC(=O)Cc1ccc(S(C)(=O)=O)cc1 [Compound 327] | > 100 | ≤ 1
CCOC(=O)c1cc(-c2ccccc2)sc1NC(=O)CNC(=O)Cc1cccc(OC(F)(F)F)c1 [Compound 328] | > 100 | ≤ 1
CCOC(=O)c1cc(-c2ccccc2)sc1-c1coc(CNc2cccc(NS(C)(=O)=O)c2)c1 [Compound 329] | > 100 | 1 to 10
CCOC(=O)c1cc(-c2ccccc2)sc1NC(=O)CNC(=O)Cc1cccc(Br)c1 [Compound 330] | > 100 | ≤ 1
CCOC(=O)c1cc(-c2ccccc2)sc1NC(=O)COC(=O)c1cccc(P(=O)(OCC)OCC)c1 [Compound 343] | > 100 | ≤ 1
CCOC(=O)c1cc(-c2ccccc2)sc1NC(=O)CNC(=O)c1cccc(P(=O)(OCC)OCC)c1 [Compound 344] | > 100 | > 25
CCOC(=O)c1cc(N)nn1C(=O)COC(=O)c1cccc(NS(C)(=O)=O)c1 [Compound 346] | > 100 | ≤ 1
CCOC(=O)c1cc(-c2ccccc2)[nH]c1NC(=O)COC(=O)c1cccc(P(=O)(OCC)OCC)c1 [Compound 349] | > 100 | > 25
CCOC(=O)c1cc(-c2ccccc2)sc1NC(=O)CNC(=O)Cc1cccc(P(=O)(O)O)c1 [Compound 350] | > 100 | ≤ 1
CCOC(=O)c1cc(-c2ccccc2)sc1NC(=O)CNC(=O)Cc1cccc(OS(N)(=O)=O)c1 [Compound 351] | > 100 | ≤ 1
CCOC(=O)c1cc(-c2ccccc2)[nH]c1NC(=O)COC(=O)c1cccc(P(=O)(O)O)c1 [Compound 355] | > 100 | ≤ 1
CCOC(=O)c1sc(NC(=O)COC(=O)c2cccc(P(=O)(OCC)OCC)c2)nc1-c1ccccc1 [Compound 356] | > 100 | > 25
CCOC(=O)c1cc(-c2ccccc2)sc1NC(=O)CNC(=O)c1cccc(Br)c1 [Compound 358] | > 100 | ≤ 1
CCOC(=O)c1cc(-c2ccccc2)sc1NC(=O)COC(=O)c1cccc(C(=O)OC)c1 [Compound 359] | > 100 | ≤ 1
CCOC(=O)c1cc(-c2ccccc2)sc1NC(=O)C1CCN(C(=O)c2cccc(P(=O)(OCC)OCC)c2)C1 (centres unmarked) [Compound 361] | 50 to 100 | > 25
CCOC(=O)c1cc(-c2ccccc2)sc1NC(=O)CNC(=O)Cc1ccc(S(N)(=O)=O)cc1 [Compound 363] | > 100 | ≤ 1
CCOC(=O)c1cc(-c2ccccc2)sc1NC(=O)CN1C[C@H]2CC[C@@H](C1)N2S(C)(=O)=O [Compound 364] | > 100 | > 25
CCOC(=O)c1cc(-c2ccccc2)sc1NC(=O)CNC(=O)CCc1cccc(NS(C)(=O)=O)c1 [Compound 365] | > 100 | ≤ 1
CCOC(=O)c1cc(-c2ccccc2)sc1NC(=O)CNC(=O)Cc1ccc(Cl)c(NS(C)(=O)=O)c1 [Compound 366] | > 100 | ≤ 1
CCOC(=O)c1cc(-c2ccccc2)sc1NC(=O)CNC(=O)c1cccc(P(=O)(O)O)c1 [Compound 367] | > 100 | ≤ 1
